How the values were obtained:
Format in all cases: in vivo, VM/Dk mice
[1] = test system: VM-M3 cells; test: KDE in VM-M3 model of cancer anorexia cachexia syndrome (Experiment 4c); settings: 30% KDE in diet
Description: Animals: Five breeding pairs of the VM/Dk strain of mice were used to establish and propagate a VM/Dk mouse colony in the University of South Florida (USF) Morsani College of Medicine Vivarium according to standard husbandry protocol. Male and female VM/Dk mice between 10-23 weeks of age were singly housed to accurately assess individual animal food intake. Bodyweight and food intake were tracked daily prior to and post-social isolation to ensure bodyweight and food intake normalized prior to cell inoculation (Table 1). Animals were distributed into one of four groups: Sham Male (SH-M), Sham Female (SH-F), Cancer Male (CA-M), and Cancer Female (CA-F). Each cancer animal was matched with a sham animal of equivalent sex, bodyweight, age, and food intake (FIGS. 8A-8B) to ensure appropriate cancer and sex-specific comparisons. To determine KDE-induced effects in CACS, VM/Dk animals were distributed into one of three groups: KDE+VM-M3, VM-M3, and Sham with equivalent sex, bodyweight, age and food intake at baseline (FIG. 13A). One premature death occurred in SH-F (Experiment 1a) and Sham (Experiment 4c) groups immediately post-inoculation. To determine KDE-induced effects post-LPS administration, VM/Dk animals were distributed into two groups (FIGS. 14A-14B): KDE+LPS and LPS of equivalent bodyweights. All procedures were approved by the USF Institutional Animal Care and Use Committee (USF IACUC; Protocol Number R1900 & R5829) and performed under strict adherence to the NIH Guide for the Care and Use of Laboratory Animals.
VM-M3 Cell and Lipopolysaccharide Implantation: For VM-M3 implantation in the model characterization experiments (FIG. 1-5; FIG. 8-12), ˜1×10^6 VM-M3 cells (T. Seyfried, Boston College) in 300 μL sterile PBS (CA-M and CA-F) or 300 μL sterile PBS-only (SH-M and SH-F) were injected subcutaneously into the left abdominal flank resulting in primary tumor formation at the injection site, and subsequently systemically metastasizes to most major organs, namely the liver, kidneys, spleen, lungs, and brain. […] This method of implantation further minimized variability in markers of tumor progression, and therefore provides a useful optional method technique in the VM-M3 model for efficient analysis of potential therapeutic agents. To determine KDE-induced effects on CACS, 1×10^6 VM-M3 cells in 300 μL sterile PBS (KDE+VM-M3 and VM-M3) or 300 μL sterile PBS-only (Sham) were administered intraperitoneally (FIG. 6; FIG. 13). For LPS administration in the septic atrophy model, LPS (Escherichia coli 055:B5; L2880; Sigma-Aldrich, St. Louis, MO) was diluted in sterile PBS and administered intraperitoneally at 10 mg/kg as pilot work indicated a maximal, yet non-fatal, ˜15% bodyweight reduction at 10 mg/kg dose.
Tumor Growth and Metastasis: Tumor growth was monitored weekly as a measure of bioluminescence using the Xenogen IVIS Spectrum system (Caliper LS, Hopkinton, MA). Data acquisition and analysis was performed using the Living Image@ software (Caliper LS). Approximately 15 minutes prior to in vivo imaging, VM/Dk mice received an intraperitoneal injection of D-Luciferin (50 mg/kg; 88293, Thermo Fisher Scientific; Waltham, MA). Bioluminescent signal was obtained using the IVIS Lumina cooled CCD camera system in both prone and supine positions. As only the cancer cells were transfected with the luciferase gene, bioluminescent signal (photons/sec) of the whole animal was measured and tracked over time as an indicator of tumor burden and metastatic spread. At EOL, primary tumor, spleen, liver, and adipose tissue were gathered and saturated with D-Luciferin (10 μL D-Luciferin+PBS/g tissue at 5 mg D-Luciferin/mL PBS dilution) for 5 mins and imaged to determine tumor burden. Ascites fluid was imaged 15 minutes after resuspension with D-Luciferin (20 μL D-Luciferin+PBS/mL ascites fluid at 5 mg D-Luciferin/mL PBS dilution) to assess presence of circulating tumor cells. […]

[2] = Blood glucose and ketones after single KDE gavage at various dosages (Experiment 5a); settings: vs timepoint 0
Protocol: Metabolic Biomarkers: Blood glucose and R β-hydroxybutyrate were measured using Precision Xtra™ Blood Glucose & Ketone Monitoring System (Abbott Laboratories, Abbott Park, IL). Blood lactate concentration was measured using Lactate Plus Lactate Meter (Nova Biomedical). IGF-1 and Insulin were relabeled for blinded analysis and subsequently analyzed using Luminex 100 system (Luminex, Austin, TX) with R&D Systems Mouse 1-Plex Luminex Assay (R&D Systems, Minneapolis, MN) and Milliplex Mouse Multiplex Kit (Millipore, St. Charles, MO), respectively, using manufacturer's protocol.
Ketone Diester Mitigates Bodyweight Loss and Comorbidities in Inflammation-Induced Atrophy: Reductions in anorexia, tumor burden, and skeletal muscle atrophy all present ideal outcomes in the clinical environment of CACS. It should be noted, however, that altered anorexia and tumor burden can confound interpretation of the direct effects of the KDE on skeletal muscle atrophy. […] Due to the rapid nature of LPS-induced atrophy, various dosages of KDE were gavaged to determine their ability to rapidly shift systemic metabolism. […] To determine KDE's effect on cancer-independent catabolism, a maximal non-fatal LPS dose (10 mg/kg) was administered, followed by a single 4 mL/kg water (LPS) or KDE (KDE+LPS) gavage. KDE attenuated bodyweight loss 47% within the first 24 hours post-LPS administration (FIG. 7B).

[3] = KDE in LPS-induced atrophy, pair-fed animals (Experiment 5c); settings: single 4 mL/kg KDE gavage after 10 mg/kg LPS, 1 day post LPS, vs LPS group
[4] = weekly, KDE+VM-M3 vs VM-M3 and Sham

CC(=O)CC(=O)OCCC(C)OC(=O)CC(C)=O (stereo not drawn) [KDE, R/S 1,3-butanediol acetoacetate diester]
blood lactate ([1]; KDE+VM-M3 vs VM-M3): No difference
food intake (anorexic phenotype) ([1]; KDE+VM-M3 vs VM-M3): attenuation of the predicted anorexic phenotype
bodyweight ([1]; daily, KDE+VM-M3 vs VM-M3 and Sham): lower bodyweight
ascites fluid weight ([1]; week 3, KDE+VM-M3 group (VM-M3 alone 3.0 g, Sham 0 g)): 1.9 g
ascites fluid (surrogate marker of metastatic spread) ([1]; week 3, KDE+VM-M3 vs VM-M3): significantly reduced
intraperitoneal adipose tissue weight (adipose tissue catabolism) ([1]; week 3, KDE+VM-M3 vs VM-M3): unable to alter adipose tissue catabolism
serum IGF-1 ([1]; week 3, KDE+VM-M3 vs VM-M3): did not alter circulating anabolic hormone levels
serum insulin ([1]; week 3, KDE+VM-M3 vs VM-M3): did not alter circulating anabolic hormone levels
skeletal muscle atrophy (Gastrocnemius, Soleus, Quadricep, Tibialis Anterior, Hind Limb weights) ([1]; week 3, KDE+VM-M3 vs VM-M3): did attenuate muscle atrophy
cardiac tissue weight set to baseline bodyweight ([1]; week 3, across groups): unaltered
whole animal tumor burden (in vivo bioluminescence) ([1]; weekly imaging, KDE+VM-M3 vs VM-M3): non-significant reductions
blood glucose [1, 4]: reductions in blood glucose
circulating ketones [1, 4]: sustained elevations
blood glucose ([2]; 4 mL/kg KDE gavage): significant and rapid reductions
blood ketones ([2]; 4 mL/kg KDE gavage): elevations in blood ketones
blood glucose ([2]; 5 mL/kg KDE gavage): significant and rapid reductions
blood ketones ([2]; 5 mL/kg KDE gavage): elevations in blood ketones
reduction of bodyweight loss [3]: 28%

From US12648924B2, “Prevention and treatment of effects of aging and age-associated disorders with ketone supplementation” (priority 2020, dated 2026)
